Measurements reported in PMC7037731, “Synthesis, Anticancer Activity, and Preliminary Pharmacokinetic Evaluation of 4,4-Disubstituted Curcuminoid 2,2-bis(Hydroxymethyl)Propionate Derivatives” (Molecules, 2020).
≈ marks a conversion by molar mass, not a printed value.

What was measured:
MDA-MB-231 [1] = experiment: MTT anti-proliferative assay, MDA-MB-231; type: cell-based; settings: Homo sapiens, 48 h treatment, MTT, mean ± SD of at least three experiments, read-out: IC50 (M)/ 48 h MDA-MB-231
Method: (§1) These compounds, along with all newly synthesized compounds, were screened for anti-proliferative activity against the same TNBC and colon cancer cell lines.
(§2) Cell viability was evaluated by measuring the reduction in MTT to yield blue formazan. Cells were cultured in 96-well plates, allowed to attach overnight, and then treated with compounds. After treatment, MTT solution (1 mg/mL) was added to each well, and plates were incubated for another 2 h. Medium was removed, blue formazan was dissolved in DMSO, and the absorbance was read at 570 nm by Multiskan Go spectrophotometer (Thermo Scientific, Madison, WI, USA).

HCT-116 = experiment: MTT anti-proliferative assay, HCT-116; type: cell-based; settings: Homo sapiens, 48 h treatment, MTT, mean ± SD of at least three experiments, read-out: IC50 (M)/ 48 h HCT-116
Method: as §1, §2

MDA-MB-231 [2] = settings: MDA-MB-231 in vitro and in vivo; cited from earlier work
[3] = Visible signs of toxicity and behavioral changes in xenograft mice; type: in vivo; settings: 50, 100, 150 mg/kg p.o. daily, 30 days, vs control groups
Method: (§3) The therapeutic effect of 2 was evaluated on HCT-116 colon tumor xenograft bearing nude mice. The oral administration of 2 at doses of 50, 100, or 150 mg/kg bw per day were performed after tumors reached approximately 100 mm^3 and continued for 30 consecutive days. 5-Fluorouracil treatment (30 mg/kg bw, i.p., QOD) was used as a positive control. […] There was a clear dose- and time-dependent inhibitory effect on tumor size in the other two groups, in which at 50 and 150 mg/kg doses the volume of the HCT-116 colon tumor was reduced to 73% and 40% of the control, respectively (Figure 2). The body weight of the mice was recorded prior to dosing every 3 d, and the average body weight of each group is depicted in Figure 3. Otherwise, they were monitored for visible signs of toxicity and behavioral changes 1 h after each administration.
Male nu/nu mice (5 weeks old) from National Laboratory Animal Center (Taipei, Taiwan) were maintained under the procedures and guidelines provided by the Institutional Animal Care and Use Committee of the National Health Research Institutes (Taipei, Taiwan). […] Tumor size and mouse body weight were measured once every 3 days, and tumor volume (mm^3) was calculated using the equation: length × (width)^2 × 0.5. […]

[4] = Preliminary pharmacokinetic evaluation of 2 in rat (LC-MS of serum); type: in vivo, Sprague-Dawley rats; settings: for time of maximum blood content: LC signal in serum
Method: Male Sparague-Dawley rat (420 g) from National Laboratory Animal Center, Taipei, Taiwan were maintained under the regulations of the Institutional Animal Care and Use Committee of the National Health Research Institutes, Taiwan. The animal studies were supervised under the Institutional Animal Care and Use Committee, China Medical University, Taichung, Taiwan with a protocol number ([…]-2018-278). Rat was fasted for 16 h before dosing. Compound 2 was dissolved in aqueous solution (5% ethanol and 10% Tween80 in 85% saline) and administrated via oral gavage at a dosage of 100 mg/kg. Blood samples were collected at selected time points (5, 10, 20, 30, 60, 120, 240, 360, 480 min) post dose and centrifuged at 10,000× g for 15 min to provide serum samples, which were stored at −80 °C until subsequent sample extraction.
Methods for the preparation of 2, 2m, 18, 19, 20 and 21 serum sample are delineated as follows. 50 μL of acetate buffer (pH 5.0), 50 μL of ascorbic acid (200 mg/mL), and 50 μL of 0.1 N HCl solution was added into 100 μL of serum which was collected at different time points). The resulting mixture was partitioned with 250 μL of ethyl acetate (containing 5.0 μg/mL of butyl paraben as the internal standard). After centrifuging at 10,000× g for 15 min, the upper organic layer was separated and dried under nitrogen gas to provide the crude sample, which was diluted with an appropriate volume of acetonitrile for LC-MS analysis.
The amount of 22 and 23 were analyzed by the serum samples before and after treatment with enzyme solution. The procedure for enzyme treatment is shown as follows. 100 μL of serum was treated with enzyme solution (50 μL; containing 1000 units/mL of sulfatase and 39861 units/mL of β-glucuronidase in pH 5.0 acetate buffer), 50 μL of 0.1 N HCl solution and 50 μL of ascorbic acid (200 mg/mL) in the light protected tubes at 37 °C. For optimal hydrolysis efficiency, the incubation time was decided as 2 h based on a previous study. The mixture was then partitioned with 250 μL of ethyl acetate (containing 5.0 μg/mL of butyl paraben as the internal standard). After centrifuging at 10,000× g for 15 min, the upper organic layer was separated and dried under nitrogen gas to provide the crude sample, which was diluted with an appropriate volume of acetonitrile for LC analysis.
All samples obtained from in vivo pharmacokinetic studies were assayed using LC-MS for the analysis of 2 and the corresponding metabolites. The Waters ACQUITY UPLC I-Class system (Waters Corp., Milford, MA, USA) was utilized. System control and all of the mass spectrometry data were acquired and analyzed using UNIFI software (Waters Corp.). For sample separation, the LC was equipped with an Inertsil ph-3 (50 × 2.1 mm, 2 μm particle size) RPLC column (GL Sciences Inc. Tokyo, Japan) in which the column temperature was held at 35 °C, injection volume was 7.5 μL, and the flow rate of the mobile phase was 200 μL/min. The elution started from 50% mobile phase A (ultrapure water + 0.1% formic acid) and 50% mobile phase B (100% methanol + 0.1% formic acid), held at 50% B for 0.5 min, raised to 95% B in 5.5 min, held at 95% B for 1 min, and then lowered to 50% B in 1 min. Before sample injection, the column was equilibrated by pumping 50% B for 4 min. The analysis of target compounds for all samples was performed by using a Waters Vion IMS QTof mass spectrometer. Data were acquired in the electrospray ionization (ESI) positive ion MS^E mode with range of m/z 100–1000 and 0.5 s scan time. Parameters were set as capillary voltage of 2.5 kV, source temperature of 100 °C, desolvation temperature at 250 °C, cone gas maintained at 10 L/h, desolvation gas maintained at 600 L/h. The acquired m/z and isotope pattern were processed by UNIFI software to illustrate chromatogram, and the amounts of compound was calculated with the integrated peak area of signals.

[5] = test system: HCT-116 colon tumor xenograft; experiment: In vivo antitumor activity, HCT-116 colon tumor xenograft bearing nude mice; design: species or system nu/nu mice; settings: 30 days
Method: as §3
Male nu/nu mice (5 weeks old) from National Laboratory Animal Center (Taipei, Taiwan) were maintained under the procedures and guidelines provided by the Institutional Animal Care and Use Committee of the National Health Research Institutes (Taipei, Taiwan). All experiments were supervised under the Institutional Animal Care and Use Committee, China Medical University, Taichung, Taiwan with a protocol number ([…]-2018-278). HCT-116 colon cancer cells (5 × 10^6 cells per mouse) were suspended in 0.1 mL of Matrigel solution (50% v/v Matrigel in PBS) and inoculated into the mammary fat pads of the mice. When the tumor size reached 100 mm^3, the tumor-bearing mice were randomly divided into four groups for treating with vehicle (5% ethanol and 10% tween 80 in 85% saline, 0.1 mL) and 2 (p.o. 50, 100 and 150 mg/kg/day body weight) respectively. Compounds was administered via oral route daily for 30 days. 5-Fluorouracil-treated group (i.p. 30 mg/kg) is the positive control. Tumor size and mouse body weight were measured once every 3 days, and tumor volume (mm^3) was calculated using the equation: length × (width)^2 × 0.5. At the end of experiments, mice were sacrificed.

[6] = Solubility in aqueous dosing vehicle; type: physicochemical; settings: aqueous with cosolvent or surfactant or cyclodextrin, 5% ethanol, 10% Tween 80, 85% saline, read-out: maximum solubility in aqueous vehicle
Excerpt: Subsequently, the latter would be converted into glucuronide 22 and sulfate 23 through the phase II metabolism conjugation of hydrogenated products 18, 19, 20, and 21 via the phase I metabolic pathway (Scheme 6). To verify our assumptions, the preliminary pharmacokinetic evaluation of 2 was executed.

[7] = Chemical stability on storage; type: physicochemical; settings: storage at 4 °C; DMSO-d6 1 week at room temperature
Excerpt: The low stability of 9 may have been due to self- or cross-hydrolysis, such that the two hydroxyl groups at the C-4 alkyl chains cleaved the ester linkage of the 2,2-bis(hydroxymethyl)propionate group. […] Therefore, we modified the hydroxymethyl group of 9 and were able to produce compounds 10 and 11. To prepare 10, compound 9 was acetylated with acetyl chloride in the presence of Et3N, and the resulting di-acetylation intermediate was hydrolyzed by hydrochloric acid. Compound 11 was obtained with an overall yield of 5% following a similar three-step reaction modified for methylation. The stability of these two products at room temperature may have been due to the conversion of the labile hydroxyl groups of the C-4 alkyl chains of 10 and 11 into non-nucleophilic […] groups, respectively, which prevented degradation.

Row | Compound | IC50 (MDA-MB-231 [1]) [M] | IC50 (HCT-116) [M] | potency relative to curcumin (times) (MDA-MB-231 [2]) | adverse effects (visible signs of toxicity, behavioral changes) [3] | time of second highest blood content ([4]; after oral 2 at 100 mg/kg) [min] | time of third highest blood content ([4]; after oral 2 at 100 mg/kg) [min] | time of maximum blood content ([4]; after oral 2 at 100 mg/kg) [min] | plasma stability compared to curcumin ([4]; oral 100 mg/kg) | tumor volume as % of the control ([5]; 50 mg/kg p.o. daily) [%] | tumor volume reduction ([5]; 50 mg/kg p.o. daily, vs control) [%] | tumor volume reduction / tumor inhibition ratio ([5]; 100 mg/kg p.o. daily, vs control) [%] | tumor volume as % of the control ([5]; 150 mg/kg p.o. daily) [%] | tumor volume reduction ([5]; 150 mg/kg p.o. daily, vs control) [%] | solubility [6] [mg/mL] | melting point [°C] | time from which the metabolite emerged in blood ([4]; after oral 2 at 100 mg/kg) [min] | chemical stability [7]
1 | COc1cc(/C=C/C(=O)/C=C(O)/C=C/c2ccc(OC(=O)C(C)(CO)CO)c(OC)c2)ccc1OC(=O)C(C)(CO)CO [Compound 1, curcumin di-O-2,2-bis(hydroxymethyl)propionate] | 3.06e-06 ± 1.8e-07 | 6.25e-06 ± 6e-07 | 8 to 10 |  |  |  |  |  |  |  |  |  |  |  |  |  | 
2 | COc1cc(/C=C/C(=O)C(C)(C)C(=O)/C=C/c2ccc(OC(=O)C(C)(CO)CO)c(OC)c2)ccc1OC(=O)C(C)(CO)CO [Compound 2] | 2.25e-06 ± 1e-07 | 3.1e-06 ± 2.9e-07 |  | No obvious adverse effects | 120 | 360 | 20 | superior plasma stability | 73 | 27 | 45 | 40 | 60 | ~200 (≈ 318 mM) |  |  | 
3 | COc1cc(/C=C/C(=O)C(C)(C)C(=O)/C=C/c2ccc(O)c(OC)c2)ccc1O [Compound 2m, (1E,6E)-1,7-bis(4-Hydroxy-3-methoxyphenyl)-4,4-dimethylhepta-1,6-diene-3,5-dione] | 4.17e-06 ± 1.5e-07 | 2.17e-06 ± 1.6e-07 |  |  |  |  | 120 |  |  |  |  |  |  |  | 104 to 106 | 10 | 
4 | COc1cc(/C=C/C(=O)C(CO)(CO)C(=O)/C=C/c2ccc(OC(=O)C(C)(CO)CO)c(OC)c2)ccc1OC(=O)C(C)(CO)CO [Compound 9, [(1E,6E)-4,4-bis(Hydroxymethyl)-3,5-dioxohepta-1,6-diene-1,7-diyl]bis(2-methoxy-4,1-phenylene) bis[3-hydroxy-2-(hydroxymethyl)-2-methylpropanoate]] | > 0.0001 | > 0.0001 |  |  |  |  |  |  |  |  |  |  |  |  |  |  | unstable
